Legend:
[1] = target: T1, PARP10 (Homo sapiens, UniProt Q53GL7); assay: Dose-response inhibition of GFP-PARP10 auto-MARylation in HEK […] cells, western blot; assay type: cell-based
T1 construct: GFP-PARP10, doxycycline-inducible in HEK 293 cells
T1 sequence (Q53GL7 1-1025): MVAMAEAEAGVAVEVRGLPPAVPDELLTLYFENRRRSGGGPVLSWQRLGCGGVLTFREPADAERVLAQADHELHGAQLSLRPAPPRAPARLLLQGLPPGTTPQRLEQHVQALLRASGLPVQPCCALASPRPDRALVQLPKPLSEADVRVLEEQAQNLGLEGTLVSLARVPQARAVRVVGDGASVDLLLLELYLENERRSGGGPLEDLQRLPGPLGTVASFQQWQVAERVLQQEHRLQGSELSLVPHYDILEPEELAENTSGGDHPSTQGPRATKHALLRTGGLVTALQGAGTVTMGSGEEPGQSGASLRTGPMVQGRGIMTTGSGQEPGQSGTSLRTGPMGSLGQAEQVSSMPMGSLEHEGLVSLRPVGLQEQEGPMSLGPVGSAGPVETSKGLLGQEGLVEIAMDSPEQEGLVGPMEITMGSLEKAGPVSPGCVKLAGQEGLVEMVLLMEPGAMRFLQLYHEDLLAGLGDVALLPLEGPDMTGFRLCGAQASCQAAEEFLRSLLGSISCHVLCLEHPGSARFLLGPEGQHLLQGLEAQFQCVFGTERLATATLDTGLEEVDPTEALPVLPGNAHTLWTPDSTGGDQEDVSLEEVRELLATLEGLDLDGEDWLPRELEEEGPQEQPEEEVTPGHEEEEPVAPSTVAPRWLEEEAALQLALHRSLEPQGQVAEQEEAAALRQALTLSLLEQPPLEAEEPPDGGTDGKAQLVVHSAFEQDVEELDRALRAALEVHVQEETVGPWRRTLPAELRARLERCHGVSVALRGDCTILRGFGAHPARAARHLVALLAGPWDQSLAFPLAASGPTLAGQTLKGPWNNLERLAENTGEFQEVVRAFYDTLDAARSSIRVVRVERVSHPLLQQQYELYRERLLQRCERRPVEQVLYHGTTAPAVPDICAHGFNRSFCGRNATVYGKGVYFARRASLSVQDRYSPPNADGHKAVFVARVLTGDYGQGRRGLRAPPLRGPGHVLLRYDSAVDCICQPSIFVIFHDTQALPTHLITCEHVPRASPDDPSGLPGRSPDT

[2] = target: T2, DTX2 (Homo sapiens, UniProt Q86UW9); assay: In vitro ubiquitylation of NAD+ ([…]) by purified DTX2 and E2~Ub, silver-stained gel; assay type: biochemical
T2 construct: RING-DTC domain, residues 389–622; with UBE2D3~Ub conjugate
T2 sequence (Q86UW9 389-622): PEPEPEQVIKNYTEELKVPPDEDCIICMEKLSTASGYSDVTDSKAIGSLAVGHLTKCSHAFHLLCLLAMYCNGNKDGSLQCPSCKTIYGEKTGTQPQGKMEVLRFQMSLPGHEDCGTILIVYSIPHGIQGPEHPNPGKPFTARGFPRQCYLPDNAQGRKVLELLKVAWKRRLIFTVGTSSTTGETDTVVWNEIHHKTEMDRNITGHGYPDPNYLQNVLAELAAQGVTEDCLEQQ
T2 sequence (P61077 whole entry partner, the tested form may be a part): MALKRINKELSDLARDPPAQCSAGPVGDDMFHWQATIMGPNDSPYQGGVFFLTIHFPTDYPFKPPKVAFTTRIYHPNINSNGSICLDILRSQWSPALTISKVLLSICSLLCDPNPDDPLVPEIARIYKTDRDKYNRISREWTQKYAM

Row | Compound | IC50 [1] [µM] | In vitro ubiquitylation of NAD+ (0.2 mM) by purified DTX2 and E2~Ub, silver-stai [2]
1 | RBN010860 | 0.0514 | –
2 | NC(=O)c1ccc[n+]([C@@H]2O[C@H](COP(=O)([O-])OP(=O)(O)OC[C@H]3O[C@@H](n4cnc5c(N)ncnc54)[C@H](O)[C@@H]3O)[C@@H](O)[C@H]2O)c1 [NAD^+] | – | DTX2 could readily conjugate Ub to NAD^+ and ADPr to form Ub ester-linked NAD^+ (NAD^+-Ube)

Source: publication PMC12000418, “Ubiquitin is directly linked via an ester to protein-conjugated mono-ADP-ribose” (The EMBO Journal, 2025)
